Data: the Kinase Knowledgebase extract (Sharma et al. 2016)

molecular target: EGFR (UniProt P00533); assay: not given
Sequence (P00533 whole entry, looked up): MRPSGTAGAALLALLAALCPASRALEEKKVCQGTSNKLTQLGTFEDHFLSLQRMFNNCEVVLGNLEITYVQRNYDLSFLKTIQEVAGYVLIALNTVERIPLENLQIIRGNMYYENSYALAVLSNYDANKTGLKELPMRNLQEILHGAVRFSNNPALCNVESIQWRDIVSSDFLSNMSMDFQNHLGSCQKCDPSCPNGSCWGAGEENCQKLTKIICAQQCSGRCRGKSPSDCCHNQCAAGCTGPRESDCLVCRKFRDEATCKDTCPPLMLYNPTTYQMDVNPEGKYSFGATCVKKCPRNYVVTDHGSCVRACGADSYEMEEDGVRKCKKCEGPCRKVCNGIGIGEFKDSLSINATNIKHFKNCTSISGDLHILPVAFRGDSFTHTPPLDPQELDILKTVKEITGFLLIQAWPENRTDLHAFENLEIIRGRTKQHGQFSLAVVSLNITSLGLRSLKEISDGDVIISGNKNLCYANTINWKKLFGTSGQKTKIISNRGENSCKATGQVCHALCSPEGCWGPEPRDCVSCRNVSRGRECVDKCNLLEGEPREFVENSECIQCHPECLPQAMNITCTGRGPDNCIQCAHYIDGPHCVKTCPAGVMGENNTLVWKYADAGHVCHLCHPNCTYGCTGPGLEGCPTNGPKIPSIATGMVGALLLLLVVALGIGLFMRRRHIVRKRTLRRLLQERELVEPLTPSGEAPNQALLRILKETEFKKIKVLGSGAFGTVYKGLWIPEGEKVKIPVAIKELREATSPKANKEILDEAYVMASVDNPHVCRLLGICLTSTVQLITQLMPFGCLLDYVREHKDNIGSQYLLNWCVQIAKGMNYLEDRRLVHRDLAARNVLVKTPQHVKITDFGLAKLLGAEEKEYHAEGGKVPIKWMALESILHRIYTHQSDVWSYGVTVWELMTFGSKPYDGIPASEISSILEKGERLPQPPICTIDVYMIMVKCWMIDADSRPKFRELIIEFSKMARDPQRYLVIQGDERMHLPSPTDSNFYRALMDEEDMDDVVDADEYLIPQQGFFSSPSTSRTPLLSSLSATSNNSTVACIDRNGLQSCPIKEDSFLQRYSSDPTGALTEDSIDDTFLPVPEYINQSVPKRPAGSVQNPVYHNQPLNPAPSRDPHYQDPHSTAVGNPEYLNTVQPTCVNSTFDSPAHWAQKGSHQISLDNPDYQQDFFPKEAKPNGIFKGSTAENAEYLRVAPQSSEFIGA

Compound | IC50 [nM]
CC1=CCC[C@H]2[C@](C)(CC3=C(O)C(=O)C=C(N[C@H](C(=O)O)C(C)C)C3=O)[C@@H](C)CC[C@]12C | 250000
CC1=CCC[C@H]2[C@](C)(CC3=C(N[C@@H](CO)C(=O)O)C(=O)C=C(N[C@@H](CO)C(=O)O)C3=O)[C@@H](C)CC[C@]12C | > 400000
CC1=CCC[C@H]2[C@](C)(CC3=C(N[C@H](C(=O)O)[C@@H](C)O)C(=O)C=C(N[C@H](C(=O)O)[C@@H](C)O)C3=O)[C@@H](C)CC[C@]12C | 200000
CC1=CCC[C@H]2[C@](C)(CC3=C(O)C(=O)C=C(NCC(=O)O)C3=O)[C@@H](C)CC[C@]12C | > 400000
CC1=CCC[C@H]2[C@](C)(CC3=C(O)C(=O)C=C(N[C@H](CO)C(=O)O)C3=O)[C@@H](C)CC[C@]12C | > 400000
CC1=CCC[C@H]2[C@](C)(CC3=C(O)C(=O)C=C(N[C@@H](C(=O)O)C(C)C)C3=O)[C@@H](C)CC[C@]12C | 200000
CC1=CCC[C@H]2[C@](C)(CC3=C(O)C(=O)C=C(N[C@@H](C(=O)O)[C@@H](C)O)C3=O)[C@@H](C)CC[C@]12C | > 400000
CC1=CCC[C@H]2[C@](C)(CC3=C(O)C(=O)C=C(N[C@@H](CO)C(=O)O)C3=O)[C@@H](C)CC[C@]12C | 170000
CC1=CCC[C@H]2[C@](C)(CC3=C(O)C(=O)C=C(N[C@H](C(=O)O)[C@@H](C)O)C3=O)[C@@H](C)CC[C@]12C | > 400000

molecular target: EGFR (UniProt P00533); assay: not given; remark: another data set of the same source

Compound | inhibition
C[C@@](Cc1cc(O)c(O)c(SC[C@H](NC(=O)CC[C@H](N)C(=O)O)C(=O)NCC(=O)O)c1)(NC(=O)CCN)C(=O)O | 5.2
NCCc1cc(O)c(O)c(SC[C@H](NC(=O)CC[C@H](N)C(=O)O)C(=O)NCC(=O)O)c1 | 1
NCCc1cc(SC[C@H](NC(=O)CC[C@H](N)C(=O)O)C(=O)NCC(=O)O)c(O)c(O)c1SC[C@H](NC(=O)CC[C@H](N)C(=O)O)C(=O)NCC(=O)O | 7.6
NCCC(=O)N[C@H](Cc1cc(O)c(O)c(SC[C@H](NC(=O)CC[C@H](N)C(=O)O)C(=O)NCC(=O)O)c1)C(=O)O | 8.2
N[C@@H](CCC(=O)N[C@@H](CSc1cc(C[C@H](N)C(=O)O)cc(O)c1O)C(=O)NCC(=O)O)C(=O)O | 4.4
N[C@@H](CSc1cc(C[C@H](N)C(=O)O)cc(O)c1O)C(=O)O | 2.9
NCCC(=O)NCCc1cc(O)c(O)c(SC[C@H](NC(=O)CC[C@H](N)C(=O)O)C(=O)NCC(=O)O)c1 | 4.9
NCCC(=O)N[C@@H](Cc1cc(O)c(O)c(SC[C@H](N)C(=O)O)c1)C(=O)O | 2.5
NCCC(=O)N[C@@H](Cc1cc(O)c(O)c(SC[C@H](NC(=O)CC[C@H](N)C(=O)O)C(=O)NCC(=O)O)c1)C(=O)O | 2.2

molecular target: EGFR (human) (UniProt P00533); assay: not given

Compound | IC50 [nM]
COc1cc2ncnc(NS(=O)(=O)c3ccc(Br)cc3)c2cc1OC | ≤ 1000
COc1cc2ncnc(NS(=O)(=O)c3ccc(C)cc3)c2cc1OC | ≤ 1000
COc1cc2ncnc(NS(=O)(=O)c3ccccc3I)c2cc1OC | ≤ 1000
COc1cc2ncnc(NS(=O)(=O)c3ccccc3Br)c2cc1OC | ≤ 1000
COc1cc2ncnc(NS(=O)(=O)c3cccc(Cl)c3)c2cc1OC | ≤ 1000
COc1ccc(S(=O)(=O)Nc2ncnc3cc(OC)c(OC)cc23)cc1 | ≤ 1000
COc1cc2ncnc(NS(=O)(=O)c3ccc(Cl)cc3)c2cc1OC | ≤ 1000
COc1cc2ncnc(NS(=O)(=O)c3ccccc3C#N)c2cc1OC | ≤ 1000
COc1cc2ncnc(NS(=O)(=O)c3ccccc3Cl)c2cc1OC | ≤ 1000

molecular target: ROCK2 (human) (UniProt O75116); assay: Assessment of ROCK2 Kinase Activity
Sequence (O75116 whole entry, looked up): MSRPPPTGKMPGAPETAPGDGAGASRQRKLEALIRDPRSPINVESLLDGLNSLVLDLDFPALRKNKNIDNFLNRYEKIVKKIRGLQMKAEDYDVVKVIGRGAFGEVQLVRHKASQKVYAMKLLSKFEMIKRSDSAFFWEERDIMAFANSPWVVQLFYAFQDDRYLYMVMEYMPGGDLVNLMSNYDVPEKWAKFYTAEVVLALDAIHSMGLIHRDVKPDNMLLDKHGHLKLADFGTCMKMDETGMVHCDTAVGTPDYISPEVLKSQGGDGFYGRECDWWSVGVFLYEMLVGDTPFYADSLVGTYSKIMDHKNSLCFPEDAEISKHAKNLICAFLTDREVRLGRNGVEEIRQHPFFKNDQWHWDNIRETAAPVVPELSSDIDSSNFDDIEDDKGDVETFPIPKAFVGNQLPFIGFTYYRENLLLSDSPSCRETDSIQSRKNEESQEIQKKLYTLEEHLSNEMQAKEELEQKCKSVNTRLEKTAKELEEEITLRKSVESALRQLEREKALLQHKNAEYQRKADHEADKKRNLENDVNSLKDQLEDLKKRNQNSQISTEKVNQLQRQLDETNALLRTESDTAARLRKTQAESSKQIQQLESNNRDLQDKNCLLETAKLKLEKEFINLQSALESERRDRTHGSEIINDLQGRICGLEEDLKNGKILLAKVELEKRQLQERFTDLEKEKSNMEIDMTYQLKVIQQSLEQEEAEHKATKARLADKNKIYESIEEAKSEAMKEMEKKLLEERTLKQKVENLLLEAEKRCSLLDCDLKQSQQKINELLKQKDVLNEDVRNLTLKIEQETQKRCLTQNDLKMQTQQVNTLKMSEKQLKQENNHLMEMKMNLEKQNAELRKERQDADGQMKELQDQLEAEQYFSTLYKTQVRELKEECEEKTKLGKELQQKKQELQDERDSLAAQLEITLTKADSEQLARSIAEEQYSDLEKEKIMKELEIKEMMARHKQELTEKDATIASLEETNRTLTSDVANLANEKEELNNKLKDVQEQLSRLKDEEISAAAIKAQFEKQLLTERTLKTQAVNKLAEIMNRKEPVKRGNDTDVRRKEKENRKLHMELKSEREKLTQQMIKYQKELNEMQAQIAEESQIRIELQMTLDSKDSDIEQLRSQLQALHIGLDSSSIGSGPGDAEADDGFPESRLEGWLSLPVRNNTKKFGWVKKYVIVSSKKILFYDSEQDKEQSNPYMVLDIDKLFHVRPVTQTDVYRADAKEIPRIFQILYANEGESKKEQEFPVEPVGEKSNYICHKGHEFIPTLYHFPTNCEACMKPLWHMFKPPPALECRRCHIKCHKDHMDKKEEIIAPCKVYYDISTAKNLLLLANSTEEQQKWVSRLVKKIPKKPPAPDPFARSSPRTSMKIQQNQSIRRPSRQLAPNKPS

Compound | IC50 [nM]
CCC(C)=O.c1n[nH]cc1-c1cnc2ccc(N3CCCNCC3)nn12 | 6700
CC1CN(c2ccnc(N)n2)c2ccc([N+](=O)[O-])cc21 (stereo not given) | 400
COc1cccc(CNC(=O)c2cccc3c2ccn3-c2ccnc(N)n2)c1 | 70
Clc1cnc2ccc(NCCCN3CCOCC3)nn12 | 71000
C[C@@H](NC(=O)c1cccc2c1ccn2-c1ccnc(N)n1)c1ccccc1 | 60
CC1CN(c2ccnc(N)n2)c2ccc(F)cc21 (stereo not given) | 200
Nc1nc(Nc2ccc(Oc3ccnc4[nH]cc(Cl)c34)c(F)c2)cc(C(F)(F)F)n1 | 4
CC1CN(c2ccnc(N)n2)c2ccc(Cl)cc21 (stereo not given) | 500
N#Cc1c[nH]c2nccc(Oc3ccc(Nc4cc(C(F)(F)F)nc(N)n4)cc3F)c12 | 2

molecular target: MAPK14 (murine); assay: Inhibition of MAPK14 Kinase Activity

Compound | IC50 [nM]
Cc1cc(OCCCN2CCOCC2)cc(C)c1N1C(=O)NCc2cc(NS(=O)(=O)c3ccc(F)c(Cl)c3)ccc21 | 14
Fc1ccc(Nc2ccc3c(-c4ccccc4Cl)ncnc3n2)c(F)c1 | 5800
CCc1ccc(C(=O)N2CCCC2)cc1-c1c(=O)ccn2nc(Oc3ccc(F)cc3F)ccc12 | 59
O=c1ccn2cc(Sc3ccc(F)cc3F)ccc2c1-c1c(F)cccc1F | 320
O=c1ccn2nc(NCc3ccc(F)cc3F)ccc2c1-c1c(F)cccc1F | 710
COc1ccc(CCN(C)C)cc1-c1n[nH]c2nc(Nc3ccc(F)cc3F)ncc12 | 11
COc1ccc(CCN2CCN(C)CC2)cc1-c1n[nH]c2nc(Nc3ccc(F)cc3F)ncc12 | 14
COc1ccc(C(=O)N2CCCC2)cc1-c1c(=O)ccn2nc(Oc3ccc(F)cc3F)ccc12 | 22
O=C1NCc2cc(NS(=O)(=O)c3cc(Cl)ccc3Cl)ccc2N1c1c(Cl)cccc1Cl | 100
O=c1ccn2cc(Cc3ccc(F)cc3F)ccc2c1-c1c(F)cccc1F | 93

molecular target: MAPK14 (UniProt Q16539); assay: Inhibition of MAPK Kinase Activity
Sequence (Q16539 whole entry, looked up): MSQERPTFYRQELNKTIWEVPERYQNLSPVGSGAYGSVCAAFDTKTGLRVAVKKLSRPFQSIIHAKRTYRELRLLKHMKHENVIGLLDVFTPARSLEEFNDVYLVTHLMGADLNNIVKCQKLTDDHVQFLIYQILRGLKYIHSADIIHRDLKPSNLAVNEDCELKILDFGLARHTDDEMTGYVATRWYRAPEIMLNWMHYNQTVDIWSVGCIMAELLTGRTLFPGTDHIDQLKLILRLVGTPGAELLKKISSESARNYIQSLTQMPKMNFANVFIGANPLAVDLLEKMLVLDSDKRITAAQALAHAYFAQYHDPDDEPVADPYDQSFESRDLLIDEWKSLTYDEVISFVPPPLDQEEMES

Compound | IC50 [nM]
CN(C)CCNc1cncc(-c2cncc(Nc3cccc(Cl)c3)n2)c1 | > 10000
Clc1cccc(Nc2cncc(-c3cncc(NCCCc4cccnc4)c3)n2)c1 | > 10000
Clc1cccc(Nc2cncc(-c3cncc(NCCCn4cncn4)c3)n2)c1 | > 10000
Clc1cccc(Nc2cncc(-c3cncc(NCCCn4cccn4)c3)n2)c1 | > 10000
OCCCNc1cncc(-c2cncc(Nc3cccc(Cl)c3)n2)c1 | > 10000

molecular target: PIK3CB;PIK3CG;PIK3CD;PIK3CA (human) (UniProt P48736); assay: Inhibition of PIK3 Kinase Activity

Compound | IC50 [nM]
CS(=O)(=O)N1CC=C(c2cc(N3CCOCC3)nc(-c3cccc(CO)c3)n2)CC1 | 500
CC(=O)N1CCN(c2cc(N3CCOCC3)nc(-c3cccc(CO)c3)n2)CC1 | 300

molecular target: PIK3CA (human) (UniProt P42336); assay: Assessment of Growth Inhibition of U937 Cells
Sequence (P42336 whole entry, looked up): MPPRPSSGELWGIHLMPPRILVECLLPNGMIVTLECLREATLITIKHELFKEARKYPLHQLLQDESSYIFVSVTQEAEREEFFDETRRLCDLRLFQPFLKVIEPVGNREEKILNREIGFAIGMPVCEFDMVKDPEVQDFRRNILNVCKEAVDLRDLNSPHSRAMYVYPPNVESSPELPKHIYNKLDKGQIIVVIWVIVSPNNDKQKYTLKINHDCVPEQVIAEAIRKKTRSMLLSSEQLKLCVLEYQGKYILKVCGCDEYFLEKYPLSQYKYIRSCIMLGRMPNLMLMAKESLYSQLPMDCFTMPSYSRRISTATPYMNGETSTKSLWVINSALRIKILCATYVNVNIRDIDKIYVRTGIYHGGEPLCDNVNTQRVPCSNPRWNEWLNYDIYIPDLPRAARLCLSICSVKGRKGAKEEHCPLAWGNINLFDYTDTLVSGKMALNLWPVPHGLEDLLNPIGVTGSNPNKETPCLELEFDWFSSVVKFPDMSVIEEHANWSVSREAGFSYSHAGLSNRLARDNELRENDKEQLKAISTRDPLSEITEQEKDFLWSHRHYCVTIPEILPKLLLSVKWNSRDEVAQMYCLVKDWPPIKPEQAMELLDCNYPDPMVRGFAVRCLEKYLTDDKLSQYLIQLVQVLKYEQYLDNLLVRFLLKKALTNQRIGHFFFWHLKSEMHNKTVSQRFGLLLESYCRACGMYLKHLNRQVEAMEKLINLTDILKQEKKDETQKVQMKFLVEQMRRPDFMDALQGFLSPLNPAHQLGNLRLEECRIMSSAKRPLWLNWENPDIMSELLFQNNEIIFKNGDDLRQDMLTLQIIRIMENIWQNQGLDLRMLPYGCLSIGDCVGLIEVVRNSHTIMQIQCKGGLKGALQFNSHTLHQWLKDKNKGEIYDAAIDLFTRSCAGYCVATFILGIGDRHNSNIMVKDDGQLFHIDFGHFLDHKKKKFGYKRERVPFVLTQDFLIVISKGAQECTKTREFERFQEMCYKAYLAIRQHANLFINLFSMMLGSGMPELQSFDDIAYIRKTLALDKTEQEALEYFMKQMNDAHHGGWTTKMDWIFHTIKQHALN

Compound | IC50 [nM]
CS(=O)(=O)Nc1ccc(CCC=C2SC(=O)N(CCN)C2=O)cc1 | > 30000
NCCN1C(=O)SC(=CCCc2ccc([N+](=O)[O-])cc2)C1=O | > 30000
NCCN1C(=O)SC(=CCCc2cccnc2)C1=O | > 30000
NCCN1C(=O)c2ccc(Cc3ccccc3)cc2C1=O | > 30000
CCCC=C1SC(=O)N(CCN)C1=O | > 30000
O=C1SC(=CCCc2ccccc2)C(=O)N1CN1CCOCC1 | > 30000
NCCN1C(=O)SC(=CCCc2ccc(S(N)(=O)=O)cc2)C1=O | > 30000
NCCN1C(=O)SC(CCCc2ccccc2)C1=O (stereo not given) | > 30000
O=C(O)N1C(=O)SC(=CCCc2ccccc2)C1=O | > 30000

molecular target: EGFR (human) (UniProt P00533); assay: not given; remark: another data set of the same source

Compound | IC50 [nM]
Cc1cc(C)c(/C(C(=O)Nc2ccc(F)c(Cl)c2)=C2\C(=O)Nc3ccccc32)[nH]1 | > 100000
CCN(CC)CCNC(=O)/C(=C1/C(=O)Nc2ccccc21)c1[nH]c(C)cc1C | > 100000
O=C(O)/C(=C1/C(=O)Nc2ccccc21)c1ccccc1 | > 100000
CCN(CC)Cc1cc(NC(=O)/C(=C2/C(=O)Nc3ccccc32)c2[nH]c(C)cc2C)ccc1O | > 100000
Cc1cc(C)c(/C(C(=O)Nc2ccccc2Cl)=C2\C(=O)Nc3ccccc32)[nH]1 | > 100000
Cc1cc(C)c(/C(C(=O)Nc2cccc(F)c2)=C2\C(=O)Nc3ccccc32)[nH]1 | > 100000
Cc1cc(C)c(/C(C(=O)O)=C2\C(=O)Nc3ccccc32)[nH]1 | > 100000
Cc1cc(C)c(/C(C(=O)Nc2cccc(N(C)C)c2)=C2\C(=O)Nc3ccccc32)[nH]1 | > 100000
